Experimental data as given in the Kinase Knowledgebase extract (Sharma et al. 2016).
“And” between values parts separate entries of the source, which are not always exact repeats. Equal entries are not always repeated.

Assays:
PIK3CB (Human) = PIK3CB (Human) (UniProt P42338); test: Enzyme Assay
PIK3CD (Human) [1] = target: PIK3CD (Human) (UniProt O00329); test: Enzyme Assay
PIK3CG (human) = PIK3CG (human) (UniProt P48736); test: Enzyme Assay
PIK3CA (human) = PIK3CA (human) (UniProt P42336); test: Enzyme Assay
PIK3CD (Human) [2] = target: PIK3CD (Human) (UniProt O00329); test: Cell-Based Assay; settings: raji

Sequence of PIK3CG (human) (P48736 whole entry, looked up): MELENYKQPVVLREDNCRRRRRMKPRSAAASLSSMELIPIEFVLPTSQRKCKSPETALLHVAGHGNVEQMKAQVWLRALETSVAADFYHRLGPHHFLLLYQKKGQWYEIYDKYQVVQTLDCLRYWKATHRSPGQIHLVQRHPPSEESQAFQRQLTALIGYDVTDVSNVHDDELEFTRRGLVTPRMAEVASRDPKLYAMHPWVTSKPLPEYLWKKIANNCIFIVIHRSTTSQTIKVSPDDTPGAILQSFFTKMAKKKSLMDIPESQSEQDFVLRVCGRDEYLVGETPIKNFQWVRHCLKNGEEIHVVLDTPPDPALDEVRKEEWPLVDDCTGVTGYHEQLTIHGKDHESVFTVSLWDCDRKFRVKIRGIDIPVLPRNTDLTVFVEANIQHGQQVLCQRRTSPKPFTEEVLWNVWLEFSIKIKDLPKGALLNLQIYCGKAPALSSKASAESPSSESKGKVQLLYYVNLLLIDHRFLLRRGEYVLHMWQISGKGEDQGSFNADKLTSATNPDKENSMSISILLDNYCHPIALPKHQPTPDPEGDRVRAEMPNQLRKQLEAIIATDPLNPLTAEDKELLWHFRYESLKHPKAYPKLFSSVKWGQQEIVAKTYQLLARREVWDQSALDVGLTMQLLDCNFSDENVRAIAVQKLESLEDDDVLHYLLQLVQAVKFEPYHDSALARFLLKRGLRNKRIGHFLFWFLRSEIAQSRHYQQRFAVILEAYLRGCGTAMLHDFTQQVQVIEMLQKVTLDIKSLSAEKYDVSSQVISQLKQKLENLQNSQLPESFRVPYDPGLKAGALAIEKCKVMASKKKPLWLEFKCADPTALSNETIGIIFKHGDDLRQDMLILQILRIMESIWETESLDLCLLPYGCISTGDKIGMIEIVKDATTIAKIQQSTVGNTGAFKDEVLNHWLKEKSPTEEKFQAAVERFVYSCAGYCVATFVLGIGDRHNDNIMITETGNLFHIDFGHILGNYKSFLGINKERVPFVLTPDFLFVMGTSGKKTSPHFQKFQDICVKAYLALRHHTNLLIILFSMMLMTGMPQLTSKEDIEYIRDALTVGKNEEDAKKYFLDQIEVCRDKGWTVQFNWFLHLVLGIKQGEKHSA
Sequence of PIK3CB (Human) (P42338 whole entry, looked up): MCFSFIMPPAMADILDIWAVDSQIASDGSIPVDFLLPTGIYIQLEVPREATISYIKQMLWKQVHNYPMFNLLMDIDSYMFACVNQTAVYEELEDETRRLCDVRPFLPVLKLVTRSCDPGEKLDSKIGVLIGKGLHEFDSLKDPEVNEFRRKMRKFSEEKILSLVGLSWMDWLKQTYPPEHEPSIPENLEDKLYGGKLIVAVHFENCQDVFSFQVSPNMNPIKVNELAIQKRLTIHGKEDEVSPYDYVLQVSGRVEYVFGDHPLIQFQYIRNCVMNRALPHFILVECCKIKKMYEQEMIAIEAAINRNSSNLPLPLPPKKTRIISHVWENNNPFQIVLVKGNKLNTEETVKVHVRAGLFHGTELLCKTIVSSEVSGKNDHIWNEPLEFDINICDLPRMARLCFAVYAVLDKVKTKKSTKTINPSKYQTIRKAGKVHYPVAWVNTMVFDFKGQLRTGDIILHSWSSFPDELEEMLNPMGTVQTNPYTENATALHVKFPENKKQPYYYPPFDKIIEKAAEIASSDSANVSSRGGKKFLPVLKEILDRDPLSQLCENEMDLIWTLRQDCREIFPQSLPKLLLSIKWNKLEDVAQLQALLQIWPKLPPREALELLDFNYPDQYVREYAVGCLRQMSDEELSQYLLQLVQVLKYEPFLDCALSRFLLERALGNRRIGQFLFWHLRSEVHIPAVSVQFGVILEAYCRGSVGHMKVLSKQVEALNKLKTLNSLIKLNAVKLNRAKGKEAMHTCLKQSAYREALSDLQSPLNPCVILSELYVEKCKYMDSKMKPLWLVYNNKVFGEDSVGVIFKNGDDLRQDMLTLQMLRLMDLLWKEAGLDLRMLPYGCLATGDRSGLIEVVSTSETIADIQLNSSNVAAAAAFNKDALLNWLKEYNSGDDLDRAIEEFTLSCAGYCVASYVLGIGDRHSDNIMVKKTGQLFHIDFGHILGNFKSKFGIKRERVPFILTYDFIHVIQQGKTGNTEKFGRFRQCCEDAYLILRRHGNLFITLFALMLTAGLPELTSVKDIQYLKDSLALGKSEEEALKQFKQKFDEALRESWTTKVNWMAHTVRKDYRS
Sequence of PIK3CD (Human) (O00329 whole entry, looked up): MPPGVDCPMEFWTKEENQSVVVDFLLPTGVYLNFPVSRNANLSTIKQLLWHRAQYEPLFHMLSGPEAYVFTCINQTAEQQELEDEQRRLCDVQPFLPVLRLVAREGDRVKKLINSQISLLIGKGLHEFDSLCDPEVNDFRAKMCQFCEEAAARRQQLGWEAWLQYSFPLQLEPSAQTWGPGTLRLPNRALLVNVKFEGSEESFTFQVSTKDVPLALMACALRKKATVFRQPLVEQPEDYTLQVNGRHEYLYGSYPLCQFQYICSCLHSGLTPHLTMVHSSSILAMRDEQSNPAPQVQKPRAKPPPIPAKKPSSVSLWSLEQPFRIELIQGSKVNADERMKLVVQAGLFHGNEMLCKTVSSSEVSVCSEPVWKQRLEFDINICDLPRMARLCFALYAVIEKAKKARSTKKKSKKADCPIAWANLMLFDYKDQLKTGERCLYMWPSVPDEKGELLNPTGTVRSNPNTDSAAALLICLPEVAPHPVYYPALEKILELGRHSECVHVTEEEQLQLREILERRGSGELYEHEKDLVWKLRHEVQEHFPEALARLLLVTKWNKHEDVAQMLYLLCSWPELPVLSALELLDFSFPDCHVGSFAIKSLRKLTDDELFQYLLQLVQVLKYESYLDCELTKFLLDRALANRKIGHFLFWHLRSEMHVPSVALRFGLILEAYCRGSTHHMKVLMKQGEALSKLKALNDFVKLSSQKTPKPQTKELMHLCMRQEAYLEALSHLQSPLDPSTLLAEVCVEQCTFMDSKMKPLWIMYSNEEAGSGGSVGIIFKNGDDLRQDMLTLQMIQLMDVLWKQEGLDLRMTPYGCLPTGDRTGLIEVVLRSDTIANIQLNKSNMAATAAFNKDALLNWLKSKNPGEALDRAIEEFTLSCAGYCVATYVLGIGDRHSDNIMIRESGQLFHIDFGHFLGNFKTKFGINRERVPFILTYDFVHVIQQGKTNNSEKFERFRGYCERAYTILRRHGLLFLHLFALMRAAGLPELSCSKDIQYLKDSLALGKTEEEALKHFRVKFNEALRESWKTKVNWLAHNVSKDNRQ
Sequence of PIK3CA (human) (P42336 whole entry, looked up): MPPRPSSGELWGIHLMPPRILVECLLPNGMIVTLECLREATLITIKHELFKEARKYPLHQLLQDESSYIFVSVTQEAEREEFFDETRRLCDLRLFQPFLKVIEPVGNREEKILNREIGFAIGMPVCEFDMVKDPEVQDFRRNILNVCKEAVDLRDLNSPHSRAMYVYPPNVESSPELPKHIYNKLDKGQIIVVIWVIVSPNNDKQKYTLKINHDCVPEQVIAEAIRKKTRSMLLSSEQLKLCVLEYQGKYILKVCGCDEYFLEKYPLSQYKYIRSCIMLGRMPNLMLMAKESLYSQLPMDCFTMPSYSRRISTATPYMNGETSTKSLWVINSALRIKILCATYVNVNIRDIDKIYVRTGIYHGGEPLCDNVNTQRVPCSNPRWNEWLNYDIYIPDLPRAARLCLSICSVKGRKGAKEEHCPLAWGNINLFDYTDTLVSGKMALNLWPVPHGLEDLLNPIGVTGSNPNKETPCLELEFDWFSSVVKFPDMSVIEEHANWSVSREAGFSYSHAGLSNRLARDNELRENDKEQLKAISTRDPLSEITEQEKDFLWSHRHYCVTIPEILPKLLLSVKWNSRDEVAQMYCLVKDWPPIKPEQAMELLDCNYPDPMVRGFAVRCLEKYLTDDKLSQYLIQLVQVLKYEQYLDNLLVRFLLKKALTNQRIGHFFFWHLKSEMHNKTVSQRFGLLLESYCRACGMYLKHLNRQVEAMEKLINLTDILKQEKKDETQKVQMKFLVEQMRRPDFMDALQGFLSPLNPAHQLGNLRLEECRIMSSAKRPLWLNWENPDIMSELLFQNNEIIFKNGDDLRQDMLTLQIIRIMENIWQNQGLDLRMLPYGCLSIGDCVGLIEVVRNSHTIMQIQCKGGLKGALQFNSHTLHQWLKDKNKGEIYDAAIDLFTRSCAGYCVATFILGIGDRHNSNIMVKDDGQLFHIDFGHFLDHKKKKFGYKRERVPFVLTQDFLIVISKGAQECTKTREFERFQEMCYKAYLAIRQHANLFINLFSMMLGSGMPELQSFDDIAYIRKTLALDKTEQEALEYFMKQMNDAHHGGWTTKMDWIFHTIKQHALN

Row | Compound | IC50 (PIK3CB (Human)) | IC50 (PIK3CD (Human) [1]) | IC50 (PIK3CG (human)) | IC50 (PIK3CA (human)) | IC50 (PIK3CD (Human) [2])
1 | C[C@H](NC(=O)c1c(N)nn2cccnc12)c1cc2cccc(C#CCNC(=O)[C@@H]3CCC(=O)O3)c2c(=O)n1-c1ccccc1 | 100 to 1000 nM | 100 to 1000 nM | < 100 nM | 100 to 1000 nM | < 100 nM
2 | Cc1cnc(C(=O)N[C@@H](C)c2cc3cccc(C(F)(F)F)c3c(=O)n2-c2ccccc2)c(N)n1 | ≥ 10000 nM | ≥ 10000 nM |  | ≥ 10000 nM | 
3 | C[C@H](NC(=O)c1nccnc1N)c1cc2cccc(Cl)c2c(=O)n1-c1ccc(F)cc1 | 100 to 1000 nM | 100 to 1000 nM | 100 to 1000 nM | ≥ 10000 nM | < 100 nM
4 | C[C@H](NC(=O)c1c(N)nn2cccnc12)c1cc2cccc(-c3ccc(=O)n(C)c3)c2c(=O)n1-c1ccccc1 | ≥ 10000 nM | 100 to 1000 nM | < 100 nM | ≥ 10000 nM | < 100 nM
5 | C[C@H](NC(=O)c1nc(-c2cccc(S(=O)(=O)NC3CC3)c2)cnc1N)c1cc2cccc(Cl)c2c(=O)n1C | < 100 nM | 100 to 1000 nM | < 100 nM | 100 to 1000 nM | < 100 nM
6 | CC(C)c1ccnc2c(C(=O)N[C@@H](C)c3cc4cccc(Cl)c4c(=O)n3-c3ccccc3)c(N)nn12 | ≥ 10000 nM | ≥ 10000 nM | ≥ 10000 nM | ≥ 10000 nM | 
7 | C[C@H](NC(=O)c1nc(C#N)cnc1N)c1cc2cccc(Cl)c2c(=O)n1-c1ccccc1 | 100 to 1000 nM | 100 to 1000 nM | 100 to 1000 nM | ≥ 10000 nM | < 100 nM
8 | CC(=O)N(C)Cc1cccc2cc([C@H](C)NC(=O)c3c(N)nn4cccnc34)n(-c3ccccc3)c(=O)c12 | ≥ 10000 nM | < 100 nM | ≥ 10000 nM | ≥ 10000 nM | 
9 | C[C@H](NC(=O)c1c(N)nn2cccnc12)c1cc2cccc(F)c2c(=O)n1-c1ccccc1 | ≥ 10000 nM and 100 to 1000 nM | ≥ 10000 nM and 100 to 1000 nM |  | ≥ 10000 nM | < 100 nM
10 | C[C@H](NC(=O)c1c(N)nn2cccnc12)c1cc2scc(-c3cnn(C)c3)c2c(=O)n1-c1ccccc1 | ≥ 10000 nM | ≥ 10000 nM |  | ≥ 10000 nM | 
11 | COc1cc(-c2cccc3cc(C(C)NC(=O)c4c(N)nn5cccnc45)c(-c4ccccc4)nc23)ccn1 (stereo unspecified) | ≥ 10000 nM | ≥ 10000 nM |  | ≥ 10000 nM | 100 to 1000 nM
12 | C[C@H](NC(=O)c1c(N)nn2cccnc12)c1cc2cccc(Cl)c2c(=O)n1C1CC1 | < 100 nM | 100 to 1000 nM | 100 to 1000 nM | 100 to 1000 nM | < 100 nM
13 | C[C@H](NC(=O)c1nc(-c2ccc(NS(C)(=O)=O)cc2)cnc1N)c1cc2cccc(Cl)c2c(=O)n1-c1ccccc1 | ≥ 10000 nM | ≥ 10000 nM |  | ≥ 10000 nM | 
14 | COc1cc(-c2csc3cc([C@H](C)NC(=O)c4c(N)nn5cccnc45)n(-c4ccccc4)c(=O)c23)ccn1 | ≥ 10000 nM | ≥ 10000 nM | ≥ 10000 nM | ≥ 10000 nM | 
15 | C[C@H](NC(=O)c1nc(-c2cccc(NS(C)(=O)=O)c2)cnc1N)c1cc2cccc(N3CCOCC3)c2c(=O)n1-c1ccccc1 | ≥ 10000 nM | ≥ 10000 nM |  | ≥ 10000 nM | 
16 | C[C@H](NC(=O)c1c(N)nn2cccnc12)c1cc2cccc(N3CCN(C)CC3)c2c(=O)n1-c1ccccc1 | ≥ 10000 nM | ≥ 10000 nM | ≥ 10000 nM | ≥ 10000 nM | 
17 | C[C@H](NC(=O)c1c(N)nn2cccnc12)c1cc2cccc(Cl)c2c(=O)n1CCN(C)S(C)(=O)=O | 100 to 1000 nM | 100 to 1000 nM | < 100 nM | 100 to 1000 nM | < 100 nM
18 | C[C@H](NC(=O)c1c(N)nn2cccnc12)c1cc2cccc(CN(C)C)c2c(=O)n1-c1ccccc1 | ≥ 10000 nM | < 100 nM | ≥ 10000 nM | ≥ 10000 nM | 
19 | C[C@H](NC(=O)c1nc(-c2cccc(NS(C)(=O)=O)c2)cnc1N)c1cc2cccc(Cl)c2c(=O)n1C | < 100 nM | 100 to 1000 nM | < 100 nM | 100 to 1000 nM | < 100 nM
20 | C[C@H](NC(=O)c1nc(-c2cccc(S(C)(=O)=O)c2)c(N)nc1N)c1cc2cccc(Cl)c2c(=O)n1-c1ccccc1 | < 100 nM | 100 to 1000 nM | < 100 nM | < 100 nM | < 100 nM
21 | C[C@H](NC(=O)c1c(N)nn2cccnc12)c1nn2ccc(Cl)c2c(=O)n1-c1ccccc1 | ≥ 10000 nM | ≥ 10000 nM | ≥ 10000 nM | ≥ 10000 nM | 
22 | COC(=O)c1ncsc1-c1cccc2cc([C@H](C)NC(=O)c3c(N)nn4cccnc34)n(-c3ccccc3)c(=O)c12 | ≥ 10000 nM | ≥ 10000 nM |  | ≥ 10000 nM | 
23 | C[C@H](NC(=O)c1c(N)nn2cccnc12)c1cc2cccc(/C=C/c3ccccc3)c2c(=O)n1-c1ccccc1 | ≥ 10000 nM | ≥ 10000 nM | ≥ 10000 nM | ≥ 10000 nM | 
